Tested on: maize
Test: Glass house test of safening effect on herbicide A, post-emergence application, phytotoxicity in maize
Format: in vivo
Details: for Phytotoxicity (%): post-emergence, maize, 24 DAA
Protocol: A glass house test was carried out to determine the safening effect of numerous safeners on a compound of Formula (I) with respect to maize. Various herbicidal compositions were applied post-emergence and the observed phytotoxicity in maize assessed 24 days after application (24DAA). A=2-chloro-5-[3,6-dihydro-3-methyl-2,6-dioxo-4-(trifluoromethyl)-1(2H)-pyrimidinyl]-4-fluoro-N-[[methyl(1-methylethyl)amino]sulfonyl]benzamide; B=1-[4-(N-2-methoxybenzoylsulfamoyl)phenyl]-3-methylurea.

[1] = safener 100 g/ha applied with herbicide A 100 g/ha
[2] = safener 250 g/ha applied with herbicide A 250 g/ha

SMILES	Phytotoxicity (%) [1]	Phytotoxicity (%) [2]	Phytotoxicity (%) (herbicide A 100 g/ha, no safener)	Phytotoxicity (%) (herbicide A 250 g/ha, no safener)	safening of the 3-phenyluracil herbicide A in maize (in vivo)
O=C(O)COc1ccc(Cl)c2cccnc12 [Cloquintocet]	25%	35%			
O=C(O)C1=NOC(c2ccccc2)(c2ccccc2)C1 [Isoxadifen]	28%	30%			
CC(C)N(C)S(=O)(=O)NC(=O)c1cc(-n2c(=O)cc(C(F)(F)F)n(C)c2=O)c(F)cc1Cl [A, 2-chloro-5-[3,6-dihydro-3-methyl-2,6-dioxo-4-(trifluoromethyl)-1(2H)-pyrimidinyl]-4-fluoro-N-[[methyl(1-methylethyl)amino]sulfonyl]benzamide]			25%	35%	
CC1(C(=O)O)CC(C(=O)O)=NN1c1ccc(Cl)cc1Cl (stereo not drawn) [Mefenpyr]	30%	40%			
CNC(=O)Nc1ccc(S(=O)(=O)NC(=O)c2ccccc2OC)cc1 [B, 1-[4-(N-2-methoxybenzoylsulfamoyl)phenyl]-3-methylurea]					surprisingly good safening
